The values that follow come from US20040014942A1, “Mutant strains capable of producing chemically diversified proteins by incorporation of non-conventional amino acids” (priority 2000, published 2004).

For experiment [1], the system named is strain β5366 (wild-type valS allele). The experiment in a line: Sensitivity to non-canonical amino acids, growth inhibition zone on Petri dishes. It is filed as cell-based, E. coli. The note with it: 100 mM solution in central well. As for the experimental part:
(1) 100 mM L-2-amino-butyrate
(2) 100 mM L-2-amino-valerate
(3) 100 mM L-2-3-diamino-propionate

Experiment [2] relates to strain β5366 (thyA:Val146). The experiment in a line: Growth over a cysteine diffusion gradient. It is filed as cell-based, E. coli. The source says: (§1) The plasmid pTS1 thus obtained propagates the allele thyA:Val146, in which the position 146 occupied in the wild-type thyA gene by the codon UGC of cysteine is occupied by the codon GUA of valine. The plasmid pTS1 is introduced by transformation, carried out according to the method of Sambrook and coll. (1989), in the strain ΔthyA of E. coli K12, β1308 (Lemeignan and coll., 1993), whereof the chromosome gene of the thymidylate synthase, thyA, is deleted. […] Thus, everything happens as if the cysteine could infiltrate the active site of the valyl-tRNA synthetase to form erroneous Cys-tRNA^val's capable of correcting the replacement of cysteine by valine in the active site of the thymidylate synthase. The excess valine would prevent the formation of these erroneous Cys-tRNA^val's.

The subject of the next experiment is strain β1308 (ΔthyA). The experiment in a line: Growth over a cysteine diffusion gradient. Type of experiment: cell-based, E. coli. The note with it: same conditions.
Source text: as §1

In experiment [3] the test system is twelve clones from serial propagation of β5366. Briefly: Growth factor test of clones after serial culture. It is filed as cell-based, E. coli. The note with it: glucose mineral MS medium dishes. As for the experimental part:
The cells are then washed twice with deoxygenated mineral MS medium. A deoxygenated nutritive medium containing 10 ml glucose mineral MS medium to which 1.5 mM cysteine is added is inoculated at 1/100 using washed cells. The cells are then cultivated in anaerobiosis for 24 hours at 30° C. and a fresh tube containing 10 ml deoxygenated cysteine glucose mineral MS medium is inoculated with a 1/100 dilution of the culture at the preceding stationary phase. This procedure is repeated 26 times. At the end of this serial propagation, 12 clones from the liquid culture are isolated on dishes of thymidine (0.3 mM) glucose mineral MS medium (2 g/l) in aerobiosis and kept in suspension in the same liquid medium at −80° C. The twelve clones are tested on dishes containing glucose mineral MS medium with nutritional factors added.

A further experiment has as its system adapted strain β8144. The experiment in a line: Phenotypic suppression by metabolic precursors of cysteine. Type of experiment: cell-based, E. coli. The note with it: 3 mM (L-thiazolidine4-carboxylate acid 2 mM), instead of thymidine or thymine. The source says: (§2) The nutritional requirement for cysteine of the adapted strains β8144 and β8146 is utilised to characterise metabolic precursors which can replace cysteine in the culture medium without giving rise to degradation by oxidation. […] However, the addition of none of these substances allows the growth of the strain β1308 leading to chromosomal deletion of the gene thyA of thymidylate synthase, thus excluding their contamination by traces of thymine or thymidine.

For another experiment, the system named is adapted strain β8146. The description is as above. The note with it: 3 mM (L-thiazolidine4-carboxylate acid 2 mM), instead of thymidine or thymine. Type of experiment: cell-based, E. coli.
Source text: as §2

The subject of experiment [4] is strain β5419 with mutator allele dnaQ::miniTn10. Briefly: Selection on solid medium with S-carbamyl-L-cysteine. Type of experiment: cell-based, E. coli. The following applies: dishes 0 to 8 mM, without thymidine, 96 hours at 30°, mutator allele only. The source says: The strain β5366 carrying the false-sense allele thyA:Val146 on the plasmid pTS1 is transduced with a lysate of the phage P1 harvested on an auxiliary strain of E. coli (β7170, Bouzon et al., 1997) in the chromosome of which a marker of resistance to kanamycin had been introduced at the locus nrdD, neighbour of the locus valS of the gene of valyl-tRNA synthetase, thus producing the strain β5419. A mutator allele of the gene dnaQ is introduced extemporaneously by transduction of the strain β5419 using a lysate of the phage P1 harvested on an auxiliary strain (MS2131, Shapiro, 1990) carrying a marker of resistance to the tetracycline dnaQ::miniTn10. […] After 24 hours, the cells are harvested, and washed twice in an identical volume of culture medium without thymidine. A volume of 0.1 ml of the resultant suspension, corresponding to approximately 10^8 bacteria, is spread on the surface of a series of Petri dishes containing a concentration of S-carbamyl-L-cysteine varying between 0 and 8 mM by adding 1 mM increments of the glucose mineral MS medium (2 g/l). The same procedure is applied to the non-mutator strain β5419, and to the wild-type gene dnaQ. All the Petri dishes are incubated for 96 hours at 30°. […]

The test system of experiment [5] is strains β5479, β5485 and β5486. Briefly: Phenotype of new valS mutants from mutator strain. It is filed as cell-based, Escherichia coli. From the text: Three of these clones served to prepare lysates of the phage P1, which were used to transduce the strain β5366, by selecting for resistance to kanamycin, following the procedure of Example 5. […] The locus valS of the three strains β5479, β5485 and β5486, each corresponding to an SCC-suppressible transducer obtained from one of the three lysates was amplified by PCR and sequenced as described in Example 3. A different localised mutation was found for each of the three strains, viz. Arg 223 changed into His in the strain β5479, Val 276 changed into Ala in the strain β5485 and Asp 230 changed into Asn in the strain β5486.

For the next experiment, the system named is strain β5455. The experiment in a line: Growth with S-carbamyl-L-cysteine without thymine or thymidine. The note with it: 3 mM S-carbamyl-L-cysteine. Type of experiment: cell-based, E. coli. From the text: A lysate of the phage P1 harvested from such a clone is used to transduce the strain β5366 carrying the plasmidic allele thyA:Val146. […] The other half of the transducers are incapable of this, and require thymine or thymidine to proliferate, just like the strain β5366. This proportion of the phenotypes is in accordance with the genetic distance between the loci valS and nrdD (0.4 mn). Thus, suppression of the false-sense mutation of thyA Cys->Val by a low concentration of exogenous cysteine could result from an alteration of the gene of valyl-tRNA synthetase. […] An A changed into a C causes replacement of the threonine at position 222 by proline, thus confirming the fixation of a genetic alteration in the gene valS of the strain β5455.

Experiment [6] deals with strain β5274 (thyA:Ile146). Briefly: Phenotypic suppression by cysteine. Type of experiment: cell-based, E. coli. The note with it: 0.1 mM isoleucine. As for the experimental part: The plasmid pTS2 thus obtained propagates the allele thyA:Ile146, in which the position 146 occupied in the wild-type thyA gene by the codon UGC of cysteine is occupied by the codon AUA of isoleucine. The strain propagating the plasmidic allele thyA:Ile146, […], proves to require the nutritional addition of thymine, thymidine or cysteine in excess, as in the case of the strain β5366. Phenotypic suppression of the strain β5274 by cysteine is abolished by 0.1 mM isoleucine, just as that of the strain β5366 is abolished by valine. Thus everything happens as if the isoleucyl-tRNA synthetase was capable of forming erroneous Cys-tRNA^Ile's in the presence of an excess of cysteine, and this erroneous formation was prevented by the presence of an excess of isoleucine.

With `NC[C@H](N)C(=O)O` [L-2-3-diamino-propionate], in [1], the effect on growth entry was “without effect”.

As for `CCC[C@H](N)C(=O)O` [L-2-amino-valerate], the effect on growth entry in experiment [1] is on record as “without effect”.

As to `N[C@@H](CS)C(=O)O` [L-cysteine], the “growth over a cysteine diffusion gradient” value is listed as “marginal growth” in [2] (30° C., glucose mineral MS medium, central well 0.1 ml of 400 mM L-cysteine) and “does not give rise to any detectable growth” with strain β1308 (ΔthyA). Moreover, the “cysteine concentration in culture medium replacing thymine or thymidine as growth factor” value in experiment [3] is given as “at least 1.5 mM”.

Consider `O=C(O)[C@@H]1CSCN1` [L-thiazolidine4-carboxylate acid], for which the “replacing cysteine as a growth factor” value with adapted strain β8144 and with adapted strain β8146 was “capable of replacing cysteine as a growth factor” each time.

Turning to `NC(=O)SC[C@H](N)C(=O)O` [S-carbamyl-L-cysteine], in [4], the “concentration of S-carbamyl-L-cysteine at which colonies appear” value was “exceeding 2 mM”. In addition, the “growth in glucose mineral solid medium without thymidine” value in experiment [5] (3 mM SCC, approximately half the transducers) was “capable of growing”. Also, the “replacing cysteine as a growth factor” value in the experiment on adapted strain β8144 and in the experiment on adapted strain β8146 was “capable of replacing cysteine as a growth factor” each time. For the same compound, the “growth in the absence of thymine or thymidine” value in the experiment on strain β5455 is “capable of growing”.

As for `CSC[C@H](N)C(=O)O` [S-methyl-L-cysteine], the “replacing cysteine as a growth factor” value in the experiment with adapted strain β8144 and in the experiment with adapted strain β8146 was “capable of replacing cysteine as a growth factor” each time.

For the compound `CC[C@H](C)[C@H](N)C(=O)O` [isoleucine], the “effect on phenotypic suppression by cysteine” value in [6] was “abolished”.

Turning to `CC(C)[C@H](N)C(=O)O` [valine], in [2] (0.1 mM valine added to Petri dish medium), the “effect on growth over a cysteine gradient” value is recorded as “abolishes the growth”.

As for L-2-amino-butyrate, the effect on growth result in experiment [1] is “without effect”. For the same compound, the sensitivity to amino-butyrate entry in experiment [5] (clones suppressing false-sense mutant Cys 146 Val of thyA) is listed as “shows sensitivity”.
